From patent publication US9463189B2 (BPV Holdings, LLC, priority 2007, dated 2016)
Structures can show the parent of a compound that is named as a salt.

How the values were obtained:
liver of NASH mice = test: Liver gene expression by Affymetrix microarray in NASH mice; assay type: in vivo, C57B1/6J mice; conditions: liver mRNA, 10 mg/kg/day, 35 days
Procedure: Gene expression was analyzed using Affynmatrix microarray followed by GOBY software analyses. Data (Table 5, below) represent average fold change in gene expression in the Compound 2/vehicle group.
Gene expression was analyzed using Affynmatrix microarray followed by GOBY software analyses. Data (Table 6, below) represent average fold change in gene expression in the Compound 2/vehicle group.
Animals were placed in Surgivet/ANESCO ISOTECY chamber (Vetequip Incorporated, Waukesha, Wis.) filled with Isoflurane (1-chloro-2,2,2-trifluoroethyl difluoromethyl ether, CAS#26675-46-7), USP Liquid for Inhalation (Baxter, Deerfield, Ill., Cat #10019-360-40) for anesthetization. Cardiac blood is taken with BD 1 mL Syringe Tuberculin Slip Tip (Becton, Dickinson & Company, Franklin Lakes, N.J., Cat #309602) with B-D25G 5/8 needle (Becton Dickinson, Franklin Lakes, N.J., Cat #305122) and was saved into Microtainer brand tube with EDTA (Becton, Dickinson and Company, Cat #365973). The heart, liver, kidney, adipose (white and brown) and muscle were collected using fine forceps and fine scissors. Tissues were stored in aluminum foils and flash frozen in liquid nitrogen for further analyses. ˜100 mg of heart, liver, adipose (white) were saved in tubes containing 1 mL RNAlater RNA Stabilization Reagent (Qiagen, Valencia, Calif., Cat #76106) and flash frozen in liquid nitrogen for gene array analyses. The liver, muscle and adipose (white) were fixed in 10% Zinc Formalin (Fisher Diagnostics, Middletown, Va., Cat#032-065, CAS #50-00-0) for histology analyses. In addition, the liver and muscle were frozen in Cryomold Standard Disposable Specimen Mold 25 mm×20 mm×5 mm (Sakura Finetechnical U.S.A., Inc., Torrance, Calif., Cat #4557) with O.C.T Compound (Sakura Finetechnical U.S.A., Inc., Torrance, Calif., Cat #4583) and frozen on dry ice mixed with 2-Methylbutane (Isopentane) (Sigma-Aldrich, St. Louis, Mo., CAS #78-78-4, Cat #270342-2L.
Total RNA was extracted using the RNeasy mini protocol (Qiagen, Cat: 74106), gene array analyses was performed using Mouse Genome 430.2.0 Affymetrix CHIP and VAMPIRE analyses software at the Veterans Affair, UCSD core facility, UCSD, San Diego, Calif.

MCP-1 = MCP-1 in plasma and liver lysates (immunoassay); assay type: in vivo, C57B1/6J mice
Procedure: Following 120-150 days on the HFD, mice in the NASH group were treated with Compound 2 (5 or 10 mg/Kg/day) or vehicle (10% Encapsin) for 42 days. Fasting and post prandial (PP) blood draws were taken at the beginning of the study (compound treatment) to identify and confirm the NASH group and during the study to evaluate various pharmacological responses. Since the NASH mice are severely hyperinsulinemic compared to NC mice, glucose tolerance testing (GTT, measures peripheral insulin resistance) was performed to evaluate the effect of Compound 2 on improvement of peripheral insulin sensitivity. Treatment was administered for 42 days (separate experiments). Body weight and food intake was measured throughout the study.
Insulin fasting plasma samples were tested using Mercodia ultra sensitive mouse insulin ELISA: 2.5 μL EDTA plasma, ALPCO Diagnostics, Uppsala, Sweden, Cat #08-10-1150-99, LOQ (0.22-7.1 μg/L). Mouse JE/MCP-1 post prandial samples were collected at sacrifice. 12.5 μL EDTA plasma, R & D Systems, Minneapolis, Minn., Cat # MFE00, LOQ (15.6-1000 pg/mL).

**Q.** `C[C@@H]1CN(Cc2ccc(OC(F)(F)F)cc2)C[C@H](C)N1S(=O)(=O)c1cccc2c1C[C@@H](C(=O)O)C2` [Compound 2, (S)-4-[cis-2,6-Dimethyl-4-(4-trifluoromethoxy-benzyl)-piperazine-1-sulfonyl]-indan-2-carboxylic acid tosylate] was tested. Which “S100 A6 (inflammatory marker) gene expression vs. vehicle” value (liver of NASH mice) did it give?
**A.** The value was “reduction”.

**Q.** And the “CD14 (Monocyte/Macrophage marker) gene expression, Fold change over vehicle” value (liver of NASH mice; 4 hours post dosing, fed state)?
**A.** The value was −2 fold.

**Q.** What about the “GADD45 (Inflammatory marker) gene expression, Fold change over vehicle” value (liver of NASH mice; 4 hours post dosing, fed state) of the same molecule?
**A.** Its value is 8 fold.

**Q.** And the “ICAM 1 (Inflammatory marker) gene expression, Fold change over vehicle” value (liver of NASH mice; 4 hours post dosing, fed state)?
**A.** Its value is −2.1 fold.

**Q.** What about the “MARCO (Monocyte/Macrophage marker) gene expression, Fold change over vehicle” value (liver of NASH mice; 4 hours post dosing, fed state) of the same molecule?
**A.** Its value is −2.5 fold.

**Q.** What about the “Orosomucoid 2 (Acute Phase Reactant Protein) gene expression, Fold change over vehicle” value (liver of NASH mice; 4 hours post dosing, fed state) of the same molecule?
**A.** The value was −2.4 fold.

**Q.** And the “Serum myeloid A1 (Acute Phase Reactant Protein) gene expression, Fold change over vehicle” value (liver of NASH mice; 4 hours post dosing, fed state)?
**A.** Its value is −1.9 fold.

**Q.** And the “Serum myeloid A2 (Acute Phase Reactant Protein) gene expression, Fold change over vehicle” value (liver of NASH mice; 4 hours post dosing, fed state)?
**A.** The value was −2.2 fold.

**Q.** And the “CTGF gene expression, Fold change over vehicle” value (liver of NASH mice; 4 hours post dosing, fed state)?
**A.** The value was “Not changed”.

**Q.** What about the “Col1a1 gene expression, Fold change over vehicle” value (liver of NASH mice; 4 hours post dosing, fed state) of the same molecule?
**A.** Its value is −6.3 fold.

**Q.** What about the “Col1a2 gene expression, Fold change over vehicle” value (liver of NASH mice; 4 hours post dosing, fed state) of the same molecule?
**A.** Its value is −3 fold.

**Q.** And the “Col3a1 gene expression, Fold change over vehicle” value (liver of NASH mice; 4 hours post dosing, fed state)?
**A.** The value was −3 fold.

**Q.** What about the “Col5a2 gene expression, Fold change over vehicle” value (liver of NASH mice; 4 hours post dosing, fed state) of the same molecule?
**A.** Its value is −2.2 fold.

**Q.** What about the “Col6a2 gene expression, Fold change over vehicle” value (liver of NASH mice; 4 hours post dosing, fed state) of the same molecule?
**A.** The value was −8.9 fold.

**Q.** What about the “Fibronectin gene expression, Fold change over vehicle” value (liver of NASH mice; 4 hours post dosing, fed state) of the same molecule?
**A.** Its value is “Not changed”.

**Q.** What about the “Timp 1 gene expression, Fold change over vehicle” value (liver of NASH mice; 4 hours post dosing, fed state) of the same molecule?
**A.** The value was −4.5 fold.

**Q.** And the “Timp 2 gene expression, Fold change over vehicle” value (liver of NASH mice; 4 hours post dosing, fed state)?
**A.** The value was “Not changed”.

**Q.** What about the “Vimentin gene expression, Fold change over vehicle” value (liver of NASH mice; 4 hours post dosing, fed state) of the same molecule?
**A.** Its value is −2.3 fold.

**Q.** And the “reduction of MCP-1 levels in plasma, treated vs. untreated mice” value (MCP-1; 42 days of 5 mg/kg/day, p<0.006)?
**A.** The value was 34%.

**Q.** What about the “reduction of MCP-1 levels in the liver lysates, treated vs. untreated mice” value (MCP-1; 42 days of 5 mg/kg/day, trend, p=0.08) of the same molecule?
**A.** The value was 31%.

**Q.** And the “levels of plasma MCP-1” value (MCP-1; oral administration, NASH mice, p<0.05 vs. vehicle)?
**A.** The value was “normalized levels”.
